In patent publication US20090170762A1, “Treatment of Diabetes Related Obesity” (UUTech Limited, priority 2005, published 2009):
Ends that are not written are not given here.

What was measured:
Swiss TO mice = test: Daily (Pro3)GIP for 60 days in Swiss TO mice previously fed high fat diet for 160 days; type: in vivo, mouse; conditions: high fat diet 160 days before, 25 nmoles/kg/day i.p. 60 days
Description: Parameters were measured at 3-4 daily intervals during a 60 day treatment period, which was preceded by a 160 days of feeding high fat diet. Mice were initially recruited into the study at 6-8 weeks of age. Control animals received standard rodent maintenance diet, 12.99 kj/g, (Harlan, UK) ad libitum. The animals were maintained on the respective diet for the duration of the study. High fat diet comprised 45% fat, 20% protein and 35% carbohydrate (26.15 kj/g) and was available ad libitum. (Special Diet Services, Essex, UK).
The results are shown in FIGS. 15A-B, which are a set of line graphs. Normal mice were fed the high fat diet indicated above ad libitum from 6-8 weeks of age. Treated groups of mice received intraperitoneal injection of ProGIP (25 nmoles/kg body weight) each day for a further 60 days while receiving the same high fat diet.

human GIP-R = target: T1, human GIP-R (Homo sapiens, UniProt P48546); test: Cyclic AMP production in GIP-R transfected CHL cells; type: cell-based
T1 construct: expressed in transfected cells; host or cells: Chinese Hamster Lung (CHL) fibroblast cells, stably transfected
T1 sequence (P48546 22-466): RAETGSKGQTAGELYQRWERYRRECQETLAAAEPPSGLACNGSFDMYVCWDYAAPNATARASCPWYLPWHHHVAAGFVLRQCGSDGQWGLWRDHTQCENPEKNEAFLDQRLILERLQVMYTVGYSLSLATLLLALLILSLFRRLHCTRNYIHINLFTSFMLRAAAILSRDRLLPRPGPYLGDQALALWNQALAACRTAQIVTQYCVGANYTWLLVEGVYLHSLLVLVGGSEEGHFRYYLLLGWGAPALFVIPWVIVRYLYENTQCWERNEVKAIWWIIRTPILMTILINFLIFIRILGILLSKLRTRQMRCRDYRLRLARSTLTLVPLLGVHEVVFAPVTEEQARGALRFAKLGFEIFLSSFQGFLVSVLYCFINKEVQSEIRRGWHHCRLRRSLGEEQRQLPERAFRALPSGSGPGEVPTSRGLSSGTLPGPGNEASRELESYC
Outline: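 Cells washed in ice-cold HBS buffer (5.6 mm glucose, pH 7.4), then lysed in TCA/SDS solution with unlabelled cAMP and ATP. Tritiated cAMP formation measured by Dowex and alumina ion-exchange column chromatography.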

For “YAPGTFISDYSIAMDKIHQQDFVNWLLAQKGKKNDWKHNITQ [(Pro^3)GIP]”, the body weight (Swiss TO mice) was “promotes body weight loss”, the energy intake (Swiss TO mice) was “not associated with significant decrease in energy intake” and the EC50 (human GIP-R) was 207 nM. The remaining activity at 0.1 µM (human GIP-R; CHL, read-out: cAMP response in presence of 10^-7 M GIP (% GIP max)) was 66 ± 7% and the “inhibition of GIP-stimulated cAMP production” value (human GIP-R; in presence of GIP (10^-7 m)) was “significantly inhibited”.
